A word on the GI50: it is the concentration giving 50% growth inhibition. Lower therefore signals more potent growth inhibition.

This is an account of results in US11332455B2, “α,β-unsaturated amide compound” (KYOWA KIRIN CO., LTD., priority 2015, dated 2022).

In assay [1] the test system is NCI-H226 cells, a human mesothelioma cell line. In words: Cell growth inhibitory effect, cell counting kit 8, 6 days. The assay is classed as cell-based. The note with it: 144 h, 6 days incubation. The text has this: (§1) Cell growth inhibitory effect on human mesothelioma, human liver cancer, human ovarian cancer, and […]
(§2) NCI-H226 cells, a human mesothelioma cell line (ATCC, CRL-5826), NCI-H322 cells, a human lung cancer cell line (the European Collection of Authenticated Cell Cultures, 95111734), OVTOKO cells, a human ovarian cancer cell line (JCRB cell bank, JCRB1048) and HuH28, a human liver cancer cell line (JCRB cell bank, JCRB0426) were each subcultured by keeping the cell density under 80% in a RPMI1640 culture medium with 10% fetal bovine serum (FBS). NCI-H226 cells, NCI-H322 cells and SSP-25 cells were each suspended in the RPM11640 culture medium mentioned above, and plated to a 96-well flat-bottom plate at 500 cells/well in each well, and incubated at 37° C. in an incubator with 5% CO2 for one day. After the incubation, the evaluation of cell growth inhibitory activity was started. OVTOKO cells were suspended in the RPMI1640 culture medium mentioned above, and plated to a 96-well flat-bottom plate at 250 cells/well in each well, and incubated it at 37° C. in an incubator with 5% CO2 for one day. After the incubation, the evaluation of the cell growth inhibitory activity was started. The next day, a test compound was serially diluted to 5 times of its final concentration in the RPM11640 culture medium mentioned above, and the diluted solution was added to each well. In this case, the final concentration of DMSO in each well was adjusted to 0.1%. After the test compound was added, cells were incubated at 37° C. in an incubator with 5% CO2 for 6 days. At the addition of the test compound and 6 days after the addition, the cell counting measurement was performed using a cell counting kit 8 (made by DOJINDO) according to a protocol equivalent to DOJINDO's recommendation. A reagent contained in the kit was added to each plate and color reaction was performed for 2 or 3 hours at 37° C. in an incubator with 5% CO2. After the reaction, an absorbance at wavelength of 450 nm was measured using a microplate reader. A growth inhibition rate was calculated according to the following formula, from which the concentration of a test compound at which cell growth was inhibited by 50% (GI50 value) was determined.
(In general: Formazan colour is commonly taken as a measure of viable cells.)

Assay [2] relates to NCI-H322 cells, a human lung cancer cell line. Described as above. The assay is classed as cell-based. The note with it: 144 h, 6 days incubation.
Description: as §1, §2

Setting [3] is: group 100 nmol/L to 1 μmol/L (upper bound given in μmol/L).

Bounds are passed on as bounds.

Consider `C=CC(=O)NC1COc2c(cccc2Oc2ccc(C(F)(F)F)nc2)C1` (racemic) [Compound 51, N-(8-[{6-(Trifluoromethyl)pyridin-3-yl}oxy]chroman-3-yl)acrylamide], for which the GI50 in assay [1] (group less than 100 nmol/L) is under 100 nM; in assay [2] it was under 1000 nM.

For `C=CC(=O)N[C@@H]1c2ccc(Oc3ccc(C(F)(F)F)cc3)cc2OC[C@@H]1F` (relative stereo) [Compound 21, cis-N-[3-Fluoro-7-{4-(trifluoromethyl)phenoxy}chroman-4-yl]acrylamide], the GI50 is under 100 nM in assay [1] (group less than 100 nmol/L) and under 1000 nM in assay [2].

As to `C=CC(=O)N[C@H]1CC[C@@H](Oc2ccc(Cl)cc2)c2nc(Cl)ccc21` (relative stereo) [Compound 70, cis-N-{2-Chloro-8-(4-chlorophenoxy)-5,6,7,8-tetrahydroquinolin-5-yl}acrylamide], the GI50 in assay [1] (group less than 100 nmol/L) is under 100 nM; in assay [2], under 1000 nM.

`C=CC(=O)N[C@H]1CC[C@@H](Oc2ccc(Cl)cc2)c2nc(OC)ccc21` (relative stereo) [Compound 71, cis-N-{8-(4-Chlorophenoxy)-2-methoxy-5,6,7,8-tetrahydroquinolin-5-yl}acrylamide]: the GI50 in assay [1] (group less than 100 nmol/L) is under 100 nM; in assay [2], under 1000 nM.

Consider `C=CC(=O)N[C@H]1CC[C@@H](Oc2ccc(C(F)(F)F)cc2)c2nc(Cl)ccc21` (relative stereo) [Compound 76, cis-N-[2-Chloro-8-{4-(trifluoromethyl)phenoxy}-5,6,7,8-tetrahydroquinolin-5-yl]acrylamide], for which the GI50 in assay [1] (group less than 100 nmol/L) is under 100 nM; in assay [2], under 1000 nM.

`C=CC(=O)N[C@H]1CC[C@H](Oc2ccc(C(F)(F)F)cc2)c2nc(Cl)ccc21` (relative stereo) [Compound 82, trans-N-[2-Chloro-8-{4-(trifluoromethyl)phenoxy}-5,6,7,8-tetrahydroquinolin-5-yl]acrylamide]: the concentration for 50% growth inhibition (GI50) in assay [1] (group less than 100 nmol/L) was under 100 nM; in assay [2], under 1000 nM.

As to `C=CC(=O)N[C@H]1CC[C@@H](Oc2ccc(C(F)(F)F)cc2)c2nc(C)ccc21` (relative stereo) [Compound 184, cis-N-[2-Methyl-8-{4-(trifluoromethyl)phenoxy}-5,6,7,8-tetrahydroquinolin-5-yl]acrylamide], the values for the GI50 in assay [1] (group less than 100 nmol/L) and in assay [2] were under 100 nM and under 1000 nM, respectively.

As to `C=CC(=O)NC1CCOc2c1ccc(Oc1ccc(Cl)cc1)c2C` (centres unmarked) [Compound 27, N-{7-(4-Chlorophenoxy)-8-methylchroman-4-yl}acrylamide], the GI50 was under 100 nM in assay [1] (group less than 100 nmol/L) and under 1000 nM in assay [2].

With `C=CC(=O)NC1CCOc2c1ccc(Oc1ccc(Cl)cc1)c2OC` (centres unmarked) [Compound 32, N-{7-(4-Chlorophenoxy)-8-methoxychroman-4-yl}acrylamide], the GI50 in assay [1] (group less than 100 nmol/L) was under 100 nM; in assay [2] it was under 1000 nM.

As to `C=CC(=O)NC1COc2cccc(Oc3ccc(C(F)(F)F)cc3)c2C1` (centres unmarked) [Compound 35, N-[5-{4-(Trifluoromethyl)phenoxy}chroman-3-yl]acrylamide], the GI50 is under 100 nM in assay [1] (group less than 100 nmol/L) and under 1000 nM in assay [2].

The compound `C=CC(=O)NC1COc2cc(Oc3ccc(Cl)cc3)ccc2C1` (centres unmarked) [Compound 37, N-{7-(4-Chlorophenoxy)chroman-3-yl}acrylamide] displayed a GI50 in assay [2] of under 1000 nM.

In the case of `C=CC(=O)NC1COc2c(Oc3ccc(Cl)cc3)ccc(C)c2C1` (centres unmarked) [Compound 41, N-{8-(4-Chlorophenoxy)-5-methylchroman-3-yl}acrylamide], the GI50 was under 100 nM in assay [1] (group less than 100 nmol/L) and under 1000 nM in assay [2].

Consider `C=CC(=O)NC1COc2c(cccc2Oc2ccc(Cl)cc2)C1` (centres unmarked) [Compound 59, N-{8-(4-chlorophenoxy)chroman-3-yl}acrylamide], for which the figures for the 50% growth inhibitory concentration (GI50) in assay [1] (group less than 100 nmol/L) and in assay [2] were under 100 nM and under 1000 nM, respectively.

Regarding `C=CC(=O)NC1COc2c(cccc2Oc2ccc(C(F)(F)F)cc2)C1` (centres unmarked) [Compound 61, N-[8-{4-(Trifluoromethyl)phenoxy}chroman-3-yl]acrylamide], in assay [2], the concentration for 50% growth inhibition (GI50) is under 1000 nM.

For the compound `C=CC(=O)NC1COc2c(cccc2Oc2ccc(C(F)(F)F)cn2)C1` (centres unmarked) [Compound 64, N-(8-[{5-(Trifluoromethyl)pyridin-2-yl}oxy]chroman-3-yl)acrylamide], the GI50 in assay [2] was under 1000 nM.

On to `C=CC(=O)Nc1cncc(Oc2ccc(C(F)(F)F)c(F)c2)c1` [Compound 106, N-[5-{3-Fluoro-4-(trifluoromethyl)phenoxy}pyridin-3-yl]acrylamide], for which the GI50 in assay [1] (setting [3]) is 100 to 1000 nM; in assay [2] it was under 1000 nM.

Regarding `C=CC(=O)Nc1cncc(Oc2ccc(C(F)(F)F)cn2)c1` [Compound 109, N-(5-[{5-(Trifluoromethyl)pyridin-2-yl}oxy]pyridin-3-yl)acrylamide], the GI50 was under 100 nM in assay [1] (group less than 100 nmol/L) and under 1000 nM in assay [2].

In assay [1] (setting [3]), `O=C(/C=C/C(F)(F)F)NCc1cc(Oc2ccc(C(F)(F)F)cc2)nc2ccccc12` [Compound 147, (E)-4,4,4-Trifluoro-N-([2-{4-(trifluoromethyl)phenoxy}quinolin-4-yl]methyl)-2-butenamide] gave a GI50 of 100 to 1000 nM.

The compound `C=CC(=O)NC1COc2c(cccc2Oc2ccc(C(F)(F)F)nn2)C1` (centres unmarked) [Compound 156, N-(8-[{6-(trifluoromethyl)pyridazin-3-yl}oxy]chroman-3-yl)acrylamide] yielded a GI50 in assay [1] (setting [3]) of 100 to 1000 nM.

Regarding `C=CC(=O)NC1COc2c(cccc2Oc2cnc(C(F)(F)F)cn2)C1` (centres unmarked) [Compound 157, N-(8-[{5-(Trifluoromethyl)pyrazin-2-yl}oxy]chroman-3-yl)acrylamide], the GI50 was under 100 nM in assay [1] (group less than 100 nmol/L) and under 1000 nM in assay [2].

Turning to `C=CC(=O)NC1COc2c(cc(C(F)(F)F)cc2Oc2ccc(C(F)(F)F)nc2)C1` (centres unmarked) [Compound 162, N-{6-(Trifluoromethyl)-8-[{6-(trifluoromethyl)pyridin-3-yl}oxy]chroman-3-yl}acrylamide], the results for the GI50 in assay [1] (setting [3]) and in assay [2] were 100 to 1000 nM and under 1000 nM, respectively.

In the case of `C=CC(=O)NC1CCOc2c1ccc(OCc1ccccc1)c2F` (centres unmarked) [Compound 166, N-{7-(Benzyloxy)-8-fluorochroman-4-yl}acrylamide], in assay [1] (setting [3]), the GI50 was 100 to 1000 nM.

With `C=CC(=O)NC1CCOc2c1ccc(Oc1ccc(F)cc1)c2F` (centres unmarked) [Compound 167, N-{8-Fluoro-7-(4-fluorophenoxy)chroman-4-yl}acrylamide], the concentration for 50% growth inhibition (GI50) in assay [1] (group less than 100 nmol/L) was under 100 nM.

In assay [1] (setting [3]), `C=CC(=O)NC1CCOc2c1ccc(Oc1ccc(C(F)(F)F)nc1)c2OCC` (centres unmarked) [Compound 172, N-(8-Ethoxy-7-[{6-(trifluoromethyl)pyridin-3-yl}oxy]chroman-4-yl)acrylamide] returned a GI50 of 100 to 1000 nM.

On to `C=CC(=O)NCc1ccc(Oc2ccc(C(F)(F)F)cc2)c2cccnc12` [Compound 216, N-([5-{4-(Trifluoromethyl)phenoxy}quinolin-8-yl]methyl)acrylamide], for which the GI50 in assay [1] (group less than 100 nmol/L) was under 100 nM; in assay [2], under 1000 nM.

With `C=CC(=O)NCc1ccc(Oc2ccc(C(F)(F)F)nc2)c2cccnc12` [Compound 219, N-{(5-[{6-(Trifluoromethyl)pyridin-3-yl}oxy]quinolin-8-yl)methyl}acrylamide], the GI50 in assay [1] (group less than 100 nmol/L) is under 100 nM; in assay [2], under 1000 nM.

In the case of `C=CC(=O)NCc1cc(Oc2ccc(C(F)(F)F)cc2)cc2ncccc12` [Compound 220, N-([7-{4-(Trifluoromethyl)phenoxy}quinolin-5-yl]methyl)acrylamide], the GI50 is 100 to 1000 nM in assay [1] (setting [3]) and under 1000 nM in assay [2].

The compound `C=CC(=O)NCc1cc(Oc2ccc(C(F)(F)F)cc2)cc2cccnc12` [Compound 221, N-([6-{4-(Trifluoromethyl)phenoxy}quinolin-8-yl]methyl)acrylamide] gave a GI50 in assay [1] (setting [3]) of 100 to 1000 nM.

As for `C=CC(=O)NC1CCC(Oc2ccc(C(F)(F)F)cc2)c2cnccc21` (centres unmarked) [Compound 228, N-[8-{4-(Trifluoromethyl)phenoxy}-5,6,7,8-tetrahydroisoquinolin-5-yl]acrylamide], in assay [2], the GI50 was under 1000 nM.

As to `C=CC(=O)NC1COc2c(cccc2Oc2ccc(C(F)(F)F)nc2)C1` (centres unmarked) [Compound 229, N-(8-[{6-(Trifluoromethyl)pyridin-3-yl}oxy]chroman-3-yl)acrylamide], the concentration for 50% growth inhibition (GI50) in assay [1] (group less than 100 nmol/L) was under 100 nM; in assay [2], under 1000 nM.

`C=CC(=O)NC1COc2c(cc(Br)cc2Oc2ccc(C(F)(F)F)nc2)C1` (centres unmarked) [Compound 231, N-(6-Bromo-8-[{6-(trifluoromethyl)pyridin-3-yl}oxy]chroman-3-yl)acrylamide]: the GI50 in assay [1] (group less than 100 nmol/L) is under 100 nM.

Consider `C=CC(=O)NC1CCOc2c1ccc(Oc1ccc(C(F)(F)F)cc1)c2OC` (centres unmarked) [Compound 237, N-[8-Methoxy-7-{4-(trifluoromethyl)phenoxy}chroman-4-yl]acrylamide], for which, in assay [1] (group less than 100 nmol/L), the GI50 is under 100 nM.

In assay [1] (group less than 100 nmol/L), `C=CC(=O)NC1CCOc2c1ccc(Oc1ccc(C(F)(F)F)cc1)c2F` (centres unmarked) [Compound 239, N-[8-Fluoro-7-{4-(trifluoromethyl)phenoxy}chroman-4-yl]acrylamide] came in with a GI50 of under 100 nM.
